System: PC12 cells
Test: PC12 neurite outgrowth assay (β-III tubulin quantification by CX7)
Assay type: cell-based, rat
Experimental: To test our hypothesis that tumor released exosomes induce neo-neurogenesis, we utilized PC12 cells, a rat pheochromocytoma cell line, as an in vitro screen. When stimulated with NGF (100 ng/ml), PC12 cells differentiate into neuron-like cells and extend neurites. We collected 10 ml of blood along with matched tumor tissue from three head and neck cancer patients (patient samples Pt1, Pt2, Pt3). We similarly collected blood from 3 healthy volunteers (Nl1, Nl2, Nl3) as well as adult tonsil tissue (TL). The tonsil was chosen as control tissue since the majority of HPV+ OPSCCs arise in the tonsil. Exosomes were purified, quantified by BCA protein assay and further validated by western blot analysis for the exosome markers CD9 and CD81 (FIG. 1E). To test whether they harbor neurite outgrowth activity, PC12 cells were treated with 3 μg exosomes, fixed 48 hours later and immunostained for β-III tubulin. Neurite outgrowth was quantified using the CellInSight™ CX7 High Content Analysis Platform and the number of neurites compared. The exosome yield from patient Pt1 was low allowing for analysis of only one replicate while quantities from Pt2 and Pt3 were sufficient for technical replicates. […]
The CellInSight CX7 High Content Analysis Platform performs automated cellular imaging for quantitative microscopy which was utilized to quantify neurite outgrowth. […]

Substance: NGF: recombinant nerve growth factor, positive control for PC12 neurite outgrowth
- neurite outgrowth (number of β-III tubulin positive neurites) (PC12 cells fixed 48 hours after treatment, 3 μg exosomes or NGF 100 ng/ml): robustly
- neurite outgrowth (total number of beta-III tubulin positive neurites per well) (PC12 cells, 24 hour stimulation, recombinant NGF 100 ng/ml set at 100%): robust neurite outgrowth
